Test system: mouse SMN mRNA
Test: Real-time PCR of endogenous SMN mRNA in NSC34 cells
Format: cell-based
Conditions: trichostatin A at 100 nM

## CC(/C=C/C(=O)NO)=C\[C@@H](C)C(=O)c1ccc(N(C)C)cc1 [trichostatin A]
  Increase of SMN mRNA: two-fold

## Nc1nc(N)c2c(OCC3CCN(Cc4ccccc4F)CC3)cccc2n1 [D156844]
  Increase of SMN mRNA: two-fold

Source: PMC2646632 (ACS chemical biology, 2008)
